≈ marks a conversion by molar mass, not a printed value. Where “and” joins values, the source holds several entries; their conditions need not be identical. Equal values may be shown once. Read-outs that look alike come from different tables or passages of the source.
Experiments:
[1] = test system: R2509C mice; type: in vivo, mouse; conditions: for Survival 60 min after administration (survivors/total) / mice surviving 60 min after administration: rescue
[2] = test system: G2435R FDB fibers; experiment: Mn2+ quench assay in FDB fibers from G2435R mice; type: cell-based, mouse; conditions: 10 µM
Experimental: (§1) WT and mutant mice (R2509C, 8- to 20-week old; R163C, 12- to 16-week old, and G2435R, 12- to 16-week old) were euthanized and flexor digitorum brevis (FDB) muscles were dissected and incubated with 2 mg/mL collagenase (Worthington Biochemical Co., NJ, USA) in the HEPES-Krebs solution containing 2 mg/mL bovine serum albumin for 2–3 h at 37 °C. Following incubation, single cells were separated by gentle trituration in collagenase-free HEPES-Krebs solution. Isolated single FDB cells were seeded on a laminin-coated cover slip of the 35 mm glass-bottom dish or on 96 well plate coated with Cultrex basement membrane matrix (Trevigen, Minneapolis, USA).
Assays were carried out as follows[38]: 5 µM of fura2-AM dye (Thermo Fisher Scientific) dissolved in mammalian Ringer solution (133 mM NaCl, 5 mM KCl, 1 mM MgSO4, 25 mM HEPES, 5.5 mM glucose, 2 mM CaCl2, pH 7.4) was loaded into dissociated WT and homozygous G2435R FDB fibers in 96 well plates for 30 min at 37 °C, 5% CO2. […] Fura-2 was illuminated at its isosbestic wavelength (360 nm) with the X-Cite 120 metal halide light source (Exfo, Ontario, Canada) and fluorescence emission at 510 nm was recorded using a 10 ×0.3na objective. […] The fluorescence signals were plotted as fluorescence arbitrary units (f.a.u.) over time. […]

[3] = Thermodynamic solubility in solutions for injection
[4] = test system: FDB muscle cells from WT mice; experiment: Ca2+ imaging (Cal520, fura-2) of isolated single FDB cells from WT mice; type: cell-based, mouse
Experimental: as §1
Isolated single FDB cells were incubated with 4 µM Cal520-AM (AAT Bioquest, CA, USA) or fura-2-AM (Thermo Fisher Scientific) dye in the HEPES-Krebs solution (140 mM NaCl, 5 mM KCl, 2 mM CaCl2, 1 mM MgCl2, 11 mM glucose, 5 mM HEPES, pH 7.4) for 30 min at 37 °C. The cells were then washed three times with the HEPES-Krebs solution to remove excess dye, and after 30 min of de-esterification, fluorescence images were obtained with a 20X (NA = 0.75) objective lens of an inverted microscope (Nikon TE2000-E Japan) equipped with the sCMOS camera (Zyla, Andor, Belfast, Northern Ireland) using Metamorph v7 (Molecular Devices). Cal520 was excited at 480 ± 15 nm, and fluorescence was measured at wavelengths of 525 ± 25 nm. […]

[5] = test system: R2509C mice; type: in vivo, mouse
[6] = test system: G2435R mice; experiment: In vivo heat stress challenge in awake restrained G2435R mice (38 °C chamber); set-up: species or system mouse; conditions: pretreatment 30 mg/kg
[7] = 1 mg/kg i.p. 8 times every 10 min
[8] = preventive, 10 mg/kg i.p. 10 min before isoflurane, 10 mg/kg
[9] = preventive, 10 mg/kg 10 min before heat stress

CCCCCCCCn1cc(C(=O)O)c(=O)c2cc3c(cc21)OCO3 [Cpd1, 6,7-(methylenedioxy)-1-octyl-4-quinolone-3-carboxylic acid]
effect on rise in rectal temperature ([1]; 1 mg/kg i.p. 8 times at 10 min intervals, isoflurane): successfully prevented rise in the rectal temperature
Survival 90 min after isoflurane challenge (survivors/total) [1, 7]: all the mice survived
effect of second and third administrations on rectal temperature ([1]; 3 mg/kg i.p. each time rectal temperature reached 39 °C, isoflurane): successfully decreased the rectal temperature
effect on rise in rectal temperature ([1]; preventive, 3 mg/kg i.p.): did not prevent rise in rectal temperature
Survival after 90 min of anesthesia (survivors/total) ([1]; preventive, 3 mg/kg i.p. 10 min before isoflurane, 3 mg/kg): 1 out of 6
Survival after 90 min of anesthesia (survivors/total) ([1]; preventive, 3 mg/kg i.p. 10 min before isoflurane, listed as Cpd 1, 3 mg/kg): 1/6
Time to death ([1]; preventive, 3 mg/kg i.p., n = 5): 47 ± 15 min
effect on rise in rectal temperature ([1]; preventive, 10 mg/kg i.p.): successfully prevented any rise in rectal temperature
Maximum rectal temperature [1, 8]: 36.1797 °C and 35.7812 °C and 35.4844 °C and 36.3594 °C and 36.1344 °C and 36.1406 °C
Survival after 90 min of anesthesia (survivors/total) [1, 8]: All the treated mice survived
Survival 60 min after administration (survivors/total) ([1]; 3 mg/kg i.p. at 39 °C): 6/10
mice surviving 60 min after administration ([1]; 3 mg/kg i.p. at 39 °C): 60%
Survival 60 min after administration (survivors/total) ([1]; 10 mg/kg i.p. at 39 °C): 8/8
mice surviving 60 min after administration ([1]; 10 mg/kg i.p. at 39 °C): 100%
Mn2+ quench rate [2]: the same as that in untreated WT fibers
water solubility ([3]; free acid): virtually water insoluble
solubility in normal saline compared to dantrolene ([3]; normal saline): 34 fold
solubility at 48 h ([3]; normal saline (0.9% NaCl), 25 °C, saline or isotonic, thermodynamic from solid): 849 ± 58 µg/mL (≈ 2460 µM)
effect on resting [Ca2+]i (fura-2) ([4]; WT cells, 0.1 and 0.3 µM): no significant effect
Ca2+ signal with Cpd1 relative to None = 1 (sheet Fig S1b) ([4]; WT, single experiments): 0.9888 and 0.981 and 0.9775 and 0.9827 and 0.9913
effect on rise in rectal temperature ([5]; 1 mg/kg i.p. 8 times at 10 min intervals, heat stress): successfully prevented rise in the rectal temperature
Survival 90 min after heat stress challenge (survivors/total) [5, 7]: all the mice survived
preventive effect in heat stress experiments ([5]; 3 mg/kg, preliminary experiments): no effect
effect on rate of temperature rise ([5]; preventive, 10 mg/kg): slowed the rate of temperature rise
Survival 120 min after heat stress challenge (survivors/total) [5, 9]: 0 out of 4 and 0/4
Time to death from start of heat stress challenge [5, 9]: 115.67 min and 109.33 min and 83.5 min and 85 min
Survival 60 min after administration (survivors/total) ([5]; rescue, 3 mg/kg i.p. at 38 °C): 5/6
Survival 60 min after administration (survivors/total) ([5]; rescue, 3 mg/kg i.p. at 39 °C, 3 mg/kg): 3/5 and 3 out of 5
Survival 60 min after administration (survivors/total) ([5]; rescue, 10 mg/kg i.p. at 38 °C): 6/6
Survival 60 min after administration (survivors/total) ([5]; rescue, 10 mg/kg i.p. at 39 °C, 10 mg/kg): 10/11 and 10 out of 11
effect on continued rise in body temperature ([5]; rescue, 3 and 10 mg/kg i.p. at 38 °C): strongly suppressed
effect on rise in rectal temperature [6]: greatly slowed the rise in rectal temperature

From PMC8277899, “A novel RyR1-selective inhibitor prevents and rescues sudden death in mouse models of malignant hyperthermia and heat stroke” (Nature Communications, 2021)
